Results as given in US9139523B2, “5-HT2B receptor antagonists” (Janssen Pharmaceutica, NV, priority 2010, dated 2015).

Key:
hERG potassium channel = target: T1, hERG potassium channel (Homo sapiens, UniProt Q12809); test: hERG-transfected HEK293 cells using a Patch Express apparatus; type: cell-based; settings: bracketed value in cell = % block by vehicle
T1 construct: expressed in transfected cells; host or cells: HEK293
Experimental: Experiments were performed using HEK293 cells stably expressing the hERG potassium channel. Cells were grown at 37° C. and 5% CO2 in culture flasks in MEM Medium supplemented with 10% heat-inactivated fetal bovine serum, 1% L-Glutamine-Penicillin-Streptomycin-solution, 1% non-essential amino acids (100×), 1% sodium pyruvate (100 mM) and 0.8% Geneticin (50 mg/ml). Before use the cells were subcultured in MEM medium in the absence of 5 ml L-Glutamine-Penicillin-Streptomycin. For use in the automated patch-clamp system PatchXpress 7000A (Axon Instruments) cells were harvested to obtain cell suspension of single cells. Extracellular solution contained (mM): 150 NaCl, 4 KCl, 1 MgCl2, 1.8 CaCl2, 10 HEPES, 5 Glucose (pH 7.4 with NaOH). Pipette solution contained (mM): 120 KCl, 10 HEPES, 5 EGTA, 4 ATP-Mg2, 2 MgCl2, 0.5 CaCl2 (pH 7.2 with KOH).
Patch-clamp experiments were performed in the voltage-clamp mode and whole-cell currents were recorded with an automated patch-clamp assay utilizing the PatchXpress 7000A system (Axon Instruments). Current signals were amplified and digitized by a Multiclamp amplifier, stored and analyzed by using the PatchXpress, DataXpress software and Igor 5.0 (Wavemetrics).
The holding potential was −80 mV. The hERG current (K+-selective outward current) was determined as the maximal tail current at −40 mV after a 2 second depolarization to +60 mV. Pulse cycling rate was 15 s. Before each test pulse a short pulse (0.5 s) from the holding potential to −60 mV was given to determine (linear) leak current. After establishing whole-cell configuration and a stability period, the vehicle (aqueous DMSO control) was applied for 5 minutes followed by the test substance by increasing concentrations of 10^−7 M, 3×10^−7 M and 3×10^−6 M.
Each concentration of the test substance was applied twice. The effect of each concentration was determined after 5 min as an average current of 3 sequential voltage pulses. To determine the extent of block the residual current was compared with vehicle pre-treatment. Data are expressed as % block at the indicated concentrations in Table 4. The values between brackets refer to % block by the vehicle.

5HT2B = 5HT2B (Homo sapiens, UniProt P41595); test: 5-HT2B antagonism, FLIPR intracellular calcium in transfected CHO-K1 cells; type: cell-based; design: expressed in transfected cells; host or cells: CHO-K1 (ECACC); settings: for IC50: CHO-K1 cells, response to 0.1 nM serotonin, Fluo-3 FLIPR; for Kb: modified Cheng Prusoff equation from IC50, read-out: 5-HT2B antagonism KB (apparent dissociation constant)
Experimental: CHO-K1 (ECACC) cells were stably transfected with human 5-HT2B receptor cDNA subcloned into pCDNA3.1 using the calcium phosphate method. Stably transfected cell lines were selected using G-418, and clonal cell lines were developed by limit dilution. Cell lines were cultured in Dulbecco's modified Eagle Medium (DMEM) containing 10% heat inactivated dialyzed foetal bovine serum (FBS), 1% penicillin-streptomycin, 1% L-glutamine and 1% non-essential amino acids.
Confluent monolayers plated into black 96 well plates with clear bottoms were loaded with 4 μM Fluo-3-AM for 90 min at 37° C. in Hanks balanced salt solution supplemented with 20 mM HEPES and 2.5 mM probenecid. After washing, the test compound was added to the cells and maximal fluorescence in response to 0.1 nM serotonin was recorded using a fluorometric imaging plate reader (FLIPR) to detect changes in intracellular calcium levels.
The maximal fluorescence recorded in the presence of the test compound was expressed as a percent of the maximal fluorescence response to the agonist serotonin (0.1 nM). […] The apparent dissociation constant (KB) was calculated using the modified Cheng Prusoff equation (KB=IC50/(1+(A/EC50A)), where A=concentration of serotonin, and EC50A=EC50 value of serotonin in this assay). (Porter et al. (1999), Br. J. Pharmacol., 128: 13-20)

5HT2B, sequence (P41595 whole entry): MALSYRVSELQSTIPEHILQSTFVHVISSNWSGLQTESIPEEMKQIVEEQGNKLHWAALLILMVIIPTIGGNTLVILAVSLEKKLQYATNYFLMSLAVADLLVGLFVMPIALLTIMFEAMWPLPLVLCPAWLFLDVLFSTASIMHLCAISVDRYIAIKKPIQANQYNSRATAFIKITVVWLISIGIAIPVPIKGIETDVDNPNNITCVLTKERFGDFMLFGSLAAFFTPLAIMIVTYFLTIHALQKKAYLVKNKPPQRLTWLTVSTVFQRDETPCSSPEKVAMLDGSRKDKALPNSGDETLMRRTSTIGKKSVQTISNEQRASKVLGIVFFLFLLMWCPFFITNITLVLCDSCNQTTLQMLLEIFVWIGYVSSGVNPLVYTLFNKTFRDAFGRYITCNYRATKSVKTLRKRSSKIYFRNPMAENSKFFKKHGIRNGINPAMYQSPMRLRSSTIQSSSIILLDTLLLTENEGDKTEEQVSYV
T1 sequence (Q12809 whole entry): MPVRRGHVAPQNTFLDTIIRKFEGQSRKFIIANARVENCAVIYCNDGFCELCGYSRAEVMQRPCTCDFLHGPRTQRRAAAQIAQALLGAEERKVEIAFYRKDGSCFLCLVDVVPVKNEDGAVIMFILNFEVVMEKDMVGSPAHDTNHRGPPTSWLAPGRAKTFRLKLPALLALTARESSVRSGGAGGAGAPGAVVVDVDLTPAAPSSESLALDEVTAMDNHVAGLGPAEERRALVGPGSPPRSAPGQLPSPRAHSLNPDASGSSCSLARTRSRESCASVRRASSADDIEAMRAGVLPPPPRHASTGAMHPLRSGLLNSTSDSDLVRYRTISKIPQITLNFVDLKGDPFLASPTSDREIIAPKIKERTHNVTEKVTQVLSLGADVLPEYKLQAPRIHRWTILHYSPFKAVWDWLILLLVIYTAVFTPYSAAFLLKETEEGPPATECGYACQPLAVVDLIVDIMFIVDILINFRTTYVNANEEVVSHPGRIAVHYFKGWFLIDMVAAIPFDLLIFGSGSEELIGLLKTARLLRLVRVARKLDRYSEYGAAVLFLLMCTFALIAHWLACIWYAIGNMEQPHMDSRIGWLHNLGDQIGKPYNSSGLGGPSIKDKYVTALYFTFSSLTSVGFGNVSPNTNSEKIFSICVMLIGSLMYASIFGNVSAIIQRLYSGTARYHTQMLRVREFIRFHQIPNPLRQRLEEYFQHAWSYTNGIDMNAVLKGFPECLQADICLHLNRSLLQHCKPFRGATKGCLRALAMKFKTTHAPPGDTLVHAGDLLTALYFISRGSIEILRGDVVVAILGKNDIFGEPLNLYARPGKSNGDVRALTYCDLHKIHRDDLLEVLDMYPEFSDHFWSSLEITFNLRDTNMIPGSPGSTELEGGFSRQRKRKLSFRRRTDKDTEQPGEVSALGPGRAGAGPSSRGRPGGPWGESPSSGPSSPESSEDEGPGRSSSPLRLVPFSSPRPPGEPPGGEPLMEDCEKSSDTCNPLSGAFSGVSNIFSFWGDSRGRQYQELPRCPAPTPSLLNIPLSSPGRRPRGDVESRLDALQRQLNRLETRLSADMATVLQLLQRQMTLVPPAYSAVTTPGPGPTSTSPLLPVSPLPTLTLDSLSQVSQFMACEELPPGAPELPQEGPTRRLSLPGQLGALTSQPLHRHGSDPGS

COc1cc(N)c(Cl)cc1C(=O)N[C@@H]1CCN(CCCOc2ccc(F)cc2)C[C@H]1F (racemic) [(±)-7, trans-4-amino-5-chloro-N-{3-fluoro-1-[3-(4-fluorophenoxy)-propyl]-piperidin-4-yl}-2-methoxybenzamide]
% block of the hERG channel (hERG potassium channel; 100 nM): 35 (7) % | % block of the hERG channel (hERG potassium channel; 300 nM): 62 (15) % | % block of the hERG channel (hERG potassium channel; 3000 nM): 94 (21) % | IC50 (5HT2B): 60 nM | Kb (5HT2B): 20 nM

COc1cc(N)c(Cl)cc1C(=O)N[C@H]1CCN(CCCOc2ccc(F)cc2)C[C@H]1F (racemic) [(±)-12, cis-4-amino-5-chloro-N-{3-fluoro-1-[3-(4-fluorophenoxy)-propyl]-piperidin-4-yl}-2-methoxybenzamide]
% block of the hERG channel (hERG potassium channel; 100 nM): 40 (7) % | % block of the hERG channel (hERG potassium channel; 300 nM): 73 (15) % | % block of the hERG channel (hERG potassium channel; 3000 nM): 96 (21) % | IC50 (5HT2B): 12 nM | Kb (5HT2B): 4.2 nM

COc1cc(N)c(Cl)cc1C(=O)NC1CCN(CCCOc2ccc(F)cc2)CC1(F)F (racemic) [(±)-17, 4-amino-5-chloro-N-{3,3-difluoro-1-[3-(4-fluorophenoxy)-propyl]-piperidin-4-yl}-2-methoxybenzamide]
% block of the hERG channel (hERG potassium channel; 100 nM): 9 (7) % | % block of the hERG channel (hERG potassium channel; 300 nM): 17 (15) % | % block of the hERG channel (hERG potassium channel; 3000 nM): 58 (21) %

COc1cc(N)c(Cl)cc1C(=O)NC1CCN(CCCOc2ccc(F)cc2)CC1(F)F (single isomer, unassigned) [Compound (−)-17, 4-amino-5-chloro-N-{3,3-difluoro-1-[3-(4-fluorophenoxy)-propyl]-piperidin-4-yl}-2-methoxybenzamide]
% block of the hERG channel (hERG potassium channel; 100 nM): 3 (7) % | % block of the hERG channel (hERG potassium channel; 300 nM): 11 (10) % | % block of the hERG channel (hERG potassium channel; 3000 nM): 47 (11) % | IC50 (5HT2B): 1.6 nM | Kb (5HT2B): 0.55 nM

COc1cc(N)c(Cl)cc1C(=O)NC1CCN(CCCOc2ccc(F)cc2)CC1(F)F (single isomer, unassigned; (+)) [(+)-17, 4-amino-5-chloro-N-{3,3-difluoro-1-[3-(4-fluorophenoxy)-propyl]-piperidin-4-yl}-2-methoxybenzamide]
% block of the hERG channel (hERG potassium channel; 100 nM): 14 (7) % | % block of the hERG channel (hERG potassium channel; 300 nM): 21 (10) % | % block of the hERG channel (hERG potassium channel; 3000 nM): 52 (11) % | IC50 (5HT2B): 33 nM | Kb (5HT2B): 11 nM
